Experimental data: patent US20190265319A1, “SYSTEM AND METHOD FOR SMALL MOLECULE ACCURATE RECOGNITION TECHNOLOGY ("SMART")” (THE REGENTS OF THE UNIVERSITY OF CALIFORNIA, priority 2016, published 2019)
pIC50: −log10 of the molar value. Peptide text beside a SMILES is read from it.

Test system: H-460 human lung cancer cells
Format: cell-based
Settings: for pIC50: H-460 human lung cancer cells

Compound	H-460 cytotoxicity	pIC50
C#CCCC[C@@H]1OC(=O)[C@H](C(C)C)NC(=O)[C@H](C)N(C)C(=O)[C@@H]2CCCN2C(=O)[C@H](Cc2ccccc2)OC(=O)[C@H](C(C)C)N(C)C(=O)[C@H](C(C)C)NC(=O)C1(C)C [viequeamide B] (HELM PEPTIDE1{V.[meV].[O=C([C@H](Cc1ccccc1)O[*:1])[*:2]].P.[meA].V}|CHEM1{[C#CCCC[C@H](O[*:2])C(C)(C)C(=O)[*:1]]}$PEPTIDE1,CHEM1,1:R1-1:R1|PEPTIDE1,CHEM1,6:R2-1:R2$$$V2.0)	no appreciable H-460 cytotoxicity	–
C=CCCC[C@@H]1OC(=O)[C@H](C(C)C)NC(=O)[C@H](C)N(C)C(=O)[C@@H]2CCCN2C(=O)[C@H](Cc2ccccc2)OC(=O)[C@H](C(C)C)N(C)C(=O)[C@H](C(C)C)NC(=O)C1(C)C [viequeamide C] (HELM PEPTIDE1{V.[meV].[O=C([C@H](Cc1ccccc1)O[*:1])[*:2]].P.[meA].V}|CHEM1{[C=CCCC[C@H](O[*:2])C(C)(C)C(=O)[*:1]]}$PEPTIDE1,CHEM1,1:R1-1:R1|PEPTIDE1,CHEM1,6:R2-1:R2$$$V2.0)	no appreciable H-460 cytotoxicity	–
CCCCC[C@@H]1OC(=O)[C@H](C(C)C)NC(=O)[C@H](C)N(C)C(=O)[C@@H]2CCCN2C(=O)[C@H](Cc2ccccc2)OC(=O)[C@H](C(C)C)N(C)C(=O)[C@H](C(C)C)NC(=O)C1(C)C [viequeamide D] (HELM PEPTIDE1{V.[meV].[O=C([C@H](Cc1ccccc1)O[*:1])[*:2]].P.[meA].V}|CHEM1{[CCCCC[C@H](O[*:2])C(C)(C)C(=O)[*:1]]}$PEPTIDE1,CHEM1,1:R1-1:R1|PEPTIDE1,CHEM1,6:R2-1:R2$$$V2.0)	no appreciable H-460 cytotoxicity	–
viequeamide A2	–	6.21
viequeamide A3	–	5.70
viequeamide G	no appreciable H-460 cytotoxicity	–
viequeamide H	no appreciable H-460 cytotoxicity	–
viequeamide X	no appreciable H-460 cytotoxicity	–
